Assay results published in patent US20110105324A1, “Herbicidal Compounds Based on N-Azinyl-N-Phenylsulfonylureas” (BAYER CROPSCIENCE AG, priority 2008, published 2011).

Assays:
Stellaria media = assay: Pre-emergence herbicidal activity, greenhouse pot test; format: in vivo; conditions: 80 g/ha, scored visually after approx. 3 weeks, 100% = plants have died, 0% = like control
From the text: (§1) Seeds of monocotyledonous or dicotyledonous weed plants or crop plants are placed in sandy loam in wood fiber pots and covered with soil. The compounds according to the invention, which are formulated as wettable powders (WP), are then applied to the surface of the soil cover in the form of an aqueous suspension or emulsion with a water application rate of 600 l/ha (converted), with addition of 0.2% wetting agent.
(§2) After the treatment, the pots are placed in a greenhouse and maintained under good growth conditions for the test plants. After approximately 3 weeks, the activity of the preparations is scored visually in comparison with untreated controls (herbicidal activity in percent (%): 100% activity=the plants have died, 0% activity=like control plants).

Viola tricolor [1] = assay: as above; format: in vivo; conditions: 80 g/ha, scored visually after approx. 3 weeks, 100% = plants have died, 0% = like control
From the text: as §1, §2

Alopecurus myosuroides [2] = assay: as above; format: in vivo; conditions: 80 g/ha, scored visually after approx. 3 weeks, 100% = plants have died, 0% = like control
From the text: as §1, §2

Cyperus esculentus [3] = assay: as above; format: in vivo; conditions: 80 g/ha, scored visually after approx. 3 weeks, 100% = plants have died, 0% = like control
From the text: as §1, §2

Veronica persica = assay: as above; format: in vivo; conditions: 80 g/ha, scored visually after approx. 3 weeks, 100% = plants have died, 0% = like control
From the text: as §1, §2

Matricaria inodora [4] = assay: as above; format: in vivo; conditions: 80 g/ha, scored visually after approx. 3 weeks, 100% = plants have died, 0% = like control
From the text: as §1, §2

Viola tricolor [5] = assay: Post-emergence herbicidal activity, greenhouse pot test; format: in vivo; conditions: one-leaf stage, 80 g/ha, scored visually after approx. 3 weeks, 100% = plants have died, 0% = like control
Protocol: (§3) Seeds of monocotyledonous or dicotyledonous weed plants or crop plants are placed in sandy loam in wood fiber pots, covered with soil and grown in a greenhouse under good growth conditions. 2 to 3 weeks after sowing, the test plants are treated in the one-leaf stage. The compounds according to the invention, which are formulated as wettable powders (WP), are then sprayed onto the green plant parts in the form of an aqueous suspension or emulsion with a water application rate of 600 l/ha (converted) with addition of 0.2% of wetting agent. After the test plants have been left to stand in the greenhouse for approximately 3 weeks under optimal growth conditions, the activity of the preparation is scored visually in comparison with untreated controls (herbicidal activity in percent (%): 100% activity=the plants have died, 0% activity=like control plants).

Polygonum convolvulus = assay: as above; format: in vivo; conditions: one-leaf stage, 80 g/ha, scored visually after approx. 3 weeks, 100% = plants have died, 0% = like control
Protocol: as §3

Amaranthus retroflexus = assay: as above; format: in vivo; conditions: one-leaf stage, 80 g/ha, scored visually after approx. 3 weeks, 100% = plants have died, 0% = like control
Protocol: as §3

Matricaria inodora [6] = assay: as above; format: in vivo; conditions: one-leaf stage, 80 g/ha, scored visually after approx. 3 weeks, 100% = plants have died, 0% = like control
Protocol: as §3

Abutilon theophrasti = assay: as above; format: in vivo; conditions: one-leaf stage, 80 g/ha, scored visually after approx. 3 weeks, 100% = plants have died, 0% = like control
Protocol: as §3

Pharbitis purpurea [7] = assay: Pre-emergence herbicidal activity, greenhouse pot test; format: in vivo, Pharbitis/Ipomoea purpurea; conditions: 80 g/ha, scored visually after approx. 3 weeks, 100% = plants have died, 0% = like control
From the text: as §1, §2

Pharbitis purpurea [8] = assay: Post-emergence herbicidal activity, greenhouse pot test; format: in vivo, Pharbitis (Ipomoea) purpurea; conditions: one-leaf stage, 80 g/ha, scored visually after approx. 3 weeks, 100% = plants have died, 0% = like control
Protocol: as §3

Lolium multiflorum = assay: Pre-emergence herbicidal activity, greenhouse pot test; format: in vivo; conditions: 80 g/ha, scored visually after approx. 3 weeks, 100% = plants have died, 0% = like control
From the text: as §1, §2

Echinochloa crus-galli = assay: Post-emergence herbicidal activity, greenhouse pot test; format: in vivo; conditions: one-leaf stage, 80 g/ha, scored visually after approx. 3 weeks, 100% = plants have died, 0% = like control
Protocol: as §3

Alopecurus myosuroides [9] = assay: as above; format: in vivo; conditions: one-leaf stage, 80 g/ha, scored visually after approx. 3 weeks, 100% = plants have died, 0% = like control
Protocol: as §3

Cyperus esculentus [10] = assay: as above; format: in vivo; conditions: one-leaf stage, 80 g/ha, scored visually after approx. 3 weeks, 100% = plants have died, 0% = like control
Protocol: as §3

## COc1nc(NC(=O)NS(=O)(=O)c2ccccc2OC(C)C(F)(F)F)nc(OC)n1 (stereo not shown) [Compound I-6]
Stellaria media
  herbicidal activity STEME: 80%
Viola tricolor [1]
  herbicidal activity VIOTR: 80%
Alopecurus myosuroides [2]
  herbicidal activity ALOMY: 80%
Cyperus esculentus [3]
  herbicidal activity CYPES: 100%
Veronica persica
  herbicidal activity VERPE: 80%
Matricaria inodora [4]
  herbicidal activity MATIN: 80%
Viola tricolor [5]
  herbicidal activity VIOTR: 90%
Polygonum convolvulus
  herbicidal activity POLCO: 90%
Amaranthus retroflexus
  herbicidal activity AMARE: 80%
Matricaria inodora [6]
  herbicidal activity MATIN: 90%
Abutilon theophrasti
  herbicidal activity ABUTH: 90%
Pharbitis purpurea [7]
  herbicidal activity PHBPU: 80%
Pharbitis purpurea [8]
  herbicidal activity PHBPU: 90%

## Cc1cc(C)nc(NC(=O)NS(=O)(=O)c2ccccc2OC(C)C(F)(F)F)n1 (stereo not shown) [Compound I-1, N-[(4,6-Dimethylpyrimidin-2-yl)carbamoyl]-2-(2,2,2-trifluoro-1-methylethoxy)-benzenesulfonamide]
Alopecurus myosuroides [2]
  herbicidal activity ALOMY: 80%
Lolium multiflorum
  herbicidal activity LOLMU: 80%
Echinochloa crus-galli
  herbicidal activity ECHCG: 80%
Alopecurus myosuroides [9]
  herbicidal activity ALOMY: 90%
Cyperus esculentus [10]
  herbicidal activity CYPES: 80%
Polygonum convolvulus
  herbicidal activity POLCO: 90%
Amaranthus retroflexus
  herbicidal activity AMARE: 80%
Matricaria inodora [6]
  herbicidal activity MATIN: 80%
Abutilon theophrasti
  herbicidal activity ABUTH: 90%

## COc1nc(C)nc(NC(=O)NS(=O)(=O)c2ccccc2OC(C)C(F)(F)F)n1 (stereo not shown) [Compound I-5, N-[(4-Methoxy-6-methyl-1,3,5-triazin-2-yl)carbamoyl]-2-(2,2,2-trifluoro-1-methylethoxy)benzenesulfonamide]
Stellaria media
  herbicidal activity STEME: 80%
Viola tricolor [1]
  herbicidal activity VIOTR: 80%
Alopecurus myosuroides [2]
  herbicidal activity ALOMY: 90%
Veronica persica
  herbicidal activity VERPE: 90%
Matricaria inodora [4]
  herbicidal activity MATIN: 80%
Viola tricolor [5]
  herbicidal activity VIOTR: 90%
Alopecurus myosuroides [9]
  herbicidal activity ALOMY: 90%
Polygonum convolvulus
  herbicidal activity POLCO: 90%
Amaranthus retroflexus
  herbicidal activity AMARE: 100%
Matricaria inodora [6]
  herbicidal activity MATIN: 90%
Abutilon theophrasti
  herbicidal activity ABUTH: 90%
Pharbitis purpurea [7]
  herbicidal activity PHBPU: 80%
Pharbitis purpurea [8]
  herbicidal activity PHBPU: 90%

## COc1cc(OC)nc(NC(=O)NS(=O)(=O)c2ccccc2OC(C)C(F)(F)F)n1 (stereo not shown) [Compound I-4]
Viola tricolor [1]
  herbicidal activity VIOTR: 80%
Alopecurus myosuroides [2]
  herbicidal activity ALOMY: 80%
Cyperus esculentus [3]
  herbicidal activity CYPES: 90%
Veronica persica
  herbicidal activity VERPE: 80%
Matricaria inodora [4]
  herbicidal activity MATIN: 80%
Lolium multiflorum
  herbicidal activity LOLMU: 80%
Echinochloa crus-galli
  herbicidal activity ECHCG: 80%
Viola tricolor [5]
  herbicidal activity VIOTR: 90%
Alopecurus myosuroides [9]
  herbicidal activity ALOMY: 90%
Cyperus esculentus [10]
  herbicidal activity CYPES: 80%
Polygonum convolvulus
  herbicidal activity POLCO: 80%
Matricaria inodora [6]
  herbicidal activity MATIN: 90%
Abutilon theophrasti
  herbicidal activity ABUTH: 100%
Pharbitis purpurea [7]
  herbicidal activity PHBPU: 80%
Pharbitis purpurea [8]
  herbicidal activity PHBPU: 80%

## COc1cc(C)nc(NC(=O)NS(=O)(=O)c2ccccc2OC(C)C(F)(F)F)n1 (stereo not shown) [Compound I-2]
Stellaria media
  herbicidal activity STEME: 80%
Viola tricolor [1]
  herbicidal activity VIOTR: 80%
Alopecurus myosuroides [2]
  herbicidal activity ALOMY: 90%
Cyperus esculentus [3]
  herbicidal activity CYPES: 100%
Veronica persica
  herbicidal activity VERPE: 80%
Matricaria inodora [4]
  herbicidal activity MATIN: 80%
Lolium multiflorum
  herbicidal activity LOLMU: 90%
Echinochloa crus-galli
  herbicidal activity ECHCG: 80%
Viola tricolor [5]
  herbicidal activity VIOTR: 90%
Alopecurus myosuroides [9]
  herbicidal activity ALOMY: 90%
Cyperus esculentus [10]
  herbicidal activity CYPES: 80%
Polygonum convolvulus
  herbicidal activity POLCO: 90%
Matricaria inodora [6]
  herbicidal activity MATIN: 80%
Abutilon theophrasti
  herbicidal activity ABUTH: 90%
Pharbitis purpurea [7]
  herbicidal activity PHBPU: 80%
Pharbitis purpurea [8]
  herbicidal activity PHBPU: 80%

## COc1cc(Cl)nc(NC(=O)NS(=O)(=O)c2ccccc2OC(C)C(F)(F)F)n1 (stereo not shown) [Compound I-3]
Alopecurus myosuroides [2]
  herbicidal activity ALOMY: 80%
Cyperus esculentus [3]
  herbicidal activity CYPES: 100%
Veronica persica
  herbicidal activity VERPE: 80%
Matricaria inodora [4]
  herbicidal activity MATIN: 80%
Lolium multiflorum
  herbicidal activity LOLMU: 80%
Viola tricolor [5]
  herbicidal activity VIOTR: 80%
Alopecurus myosuroides [9]
  herbicidal activity ALOMY: 80%
Cyperus esculentus [10]
  herbicidal activity CYPES: 80%
Polygonum convolvulus
  herbicidal activity POLCO: 80%
Matricaria inodora [6]
  herbicidal activity MATIN: 90%
Abutilon theophrasti
  herbicidal activity ABUTH: 90%
Pharbitis purpurea [7]
  herbicidal activity PHBPU: 80%
Pharbitis purpurea [8]
  herbicidal activity PHBPU: 90%
